Reference: publication PMC7558282, “The Anticancer Activity for the Bumetanide-Based Analogs via Targeting the Tumor-Associated Membrane-Bound Human Carbonic Anhydrase-IX Enzyme” (Pharmaceuticals, 2020)

Columns and labels:
[1] = tested on: HEK-293 cells; experiment: MTT assay, non-tumorigenic HEK-293; format: cell-based; settings: HEK293, normal human embryonic kidney cells
Experimental: Such differential activity patterns could be explained as off-target activity mediated by the latter compounds being related to a specific cancer cell line.
Figure 3 Antiproliferative activity of compound 9c in tumorigenic A-498 cells and non-tumorigenic HEK-293 cells. The experiment was performed in triplicate and significance was represented as mean ± S.D. ** = p < 0.01; *** = p < 0.001 between indicated groups.
The colorimetric MTT Cell Proliferation® Assay Kit (Cat. №. 10009365; Cayman Chemical^TM, Ann Arbor, MI, USA) has been utilized to assess the cytotoxic impact of the investigated compounds on solid cancer cell lines. […] Color intensity within each well was measured spectrophotometrically using the ROBONIK-P2000® ELISA microplate reader (Bio-Tek^TM, Winooski, VT, USA) at 450 nm while subtracting the background absorbance of multi well plates at 690 nm. The experiment was conducted in triplicates and IC50 values were estimated through linear regression between the logarithm-transformed compound concentrations and corresponding % cell viability = (mean absorbance in test wells/mean absorbance in control wells) ∗ 100, having the response variable slope (four parameters) for all samples.

[2] = tested on: A-498 kidney carcinoma cells; experiment: MTT cell proliferation assay, A-498; format: cell-based, human; settings: Homo sapiens, A498, 48 h, ±SEM
Experimental: (§1) Cells were cultured in 96-well plate, at cell density of 1.2–1.8 × 10^4 cells/well, using Dulbecco’s Modified Eagle Medium (Invitrogen^TM, Carlsbad, CA, USA) supplemented with 10% (w/v) fetal bovine serum (Hyclone^TM, Marlborough, MA, USA), 10 ug/mL of insulin (Sigma-Aldrich^TM, St. Louis, MO, USA), and 1% (w/v) penicillin-streptomycin (Sigma-Aldrich^TM, St. Louis, MO, USA). Following 24h-incubation period under 5% CO2 at 37 °C, cells were treated with compounds’ serial concentrations (0.1 µM–100 µM) in DMSO, where the DMSO final concentration in the culture medium never exceeded 0.2% (v/v). Subsequently, the treated microplates were incubated for 48 h at 5% CO2/37 °C prior to examination under the inverted microscope and proceeding for the MTT assay. The culture medium was discarded and 100 µL of complete medium comprising 5 mg/mL MTT dye were dispensed within every well, then plates were reincubated for 2 h at 5% CO2/37 °C. […] Color intensity within each well was measured spectrophotometrically using the ROBONIK-P2000® ELISA microplate reader (Bio-Tek^TM, Winooski, VT, USA) at 450 nm while subtracting the background absorbance of multi well plates at 690 nm. The experiment was conducted in triplicates and IC50 values were estimated through linear regression between the logarithm-transformed compound concentrations and corresponding % cell viability = (mean absorbance in test wells/mean absorbance in control wells) ∗ 100, having the response variable slope (four parameters) for all samples.

[3] = target: hCA-II (Homo sapiens, UniProt P00918); experiment: colorimetric CA-inhibition assay based on CA-esterase activity, hCA-II; settings: hCA-II IC50, three replicate experiments; N/D = non-detected IC50 within the range of the tested concentrations
Experimental: (§2) Based on the kit manufacturer’s protocol, the candidate inhibitors were dissolved in DMSO at 10 × highest final test concentration and specific aliquots of such working dilutions were incubated with the target hCA isozyme for 10 min at room temperature prior to permit the formation of the enzyme-inhibitor complex. Triplicate experiments were performed for each candidate inhibitor concentration. Parallel wells of solvent and enzyme controls were prepared to test the solvent impact upon the activity of the target enzyme. […] Following incubation, the CA-substrate was added and changes in absorbance (at 405 nm) were monitored for 60 min at room temperature within the kinetic mode. The negative enzyme control wells (without added compounds) were arbitrarily set as 100% enzyme activity. […] Absorbance readings from background wells were subtracted from the compound assay wells in order to account for background hydrolysis activity caused by the buffer solution [44, 45].

[4] = tested on: SCaBER bladder squamous cell carcinoma cells; experiment: MTT cell proliferation assay, SCaBER; format: cell-based; settings: Homo sapiens, 48 h, ±SEM
Experimental: as §1

[5] = target: hCA-IX (Homo sapiens, UniProt Q16790); experiment: colorimetric CA-inhibition assay based on CA-esterase activity, hCA-IX
Experimental: as §2

CCCCNc1cc(-c2n[nH]c(=S)n2-c2ccc(Br)cc2)cc(S(N)(=O)=O)c1Oc1ccccc1 [Compound 9c]
IC50 [1]: > 50 µM | IC50 [2]: 5.07 ± 0.11 µM | IC50 [3]: 0.32 µM | IC50 [4]: 8.8 ± 1.9 µM | IC50 ([5]; hCA-IX IC50, three replicate experiments): 0.00442 µM | Selectivity Ratio II/IX ([5]; ratio of IC50 values for isozyme CA-II relative to CA-IX): 72.4
